Experiment [1] has as its target T1, PfSHMT (Plasmodium falciparum, UniProt Q8I566).
T1 construct: gene SHMT; recombinant, expressed in E. coli BL21(DE3) as in an earlier report, purified on Ni-Sepharose; dimer
T1 sequence (Q8I566 1-442): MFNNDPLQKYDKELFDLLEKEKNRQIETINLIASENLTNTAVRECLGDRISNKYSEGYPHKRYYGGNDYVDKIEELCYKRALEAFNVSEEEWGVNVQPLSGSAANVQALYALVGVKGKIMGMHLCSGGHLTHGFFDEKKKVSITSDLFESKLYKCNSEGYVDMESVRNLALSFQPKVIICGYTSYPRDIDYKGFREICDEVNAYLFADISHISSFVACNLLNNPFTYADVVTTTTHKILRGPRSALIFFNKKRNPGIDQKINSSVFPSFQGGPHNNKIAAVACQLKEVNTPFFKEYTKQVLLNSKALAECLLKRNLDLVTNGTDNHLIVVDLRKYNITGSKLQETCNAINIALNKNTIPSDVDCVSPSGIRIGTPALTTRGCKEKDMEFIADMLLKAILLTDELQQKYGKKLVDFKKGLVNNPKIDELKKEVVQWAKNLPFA
Put plainly: SHMT-MTHFD coupled assay, initial rates. In kind it is biochemical. Conditions: read-out: % inhibition at 0.1 mM.

In experiment [2] the target is T2, PvSHMT (Plasmodium vivax, UniProt A5K8L9).
T2 construct: gene PVX_100730; recombinant, expressed in E. coli BL21(DE3) as in an earlier report; dimer
T2 sequence (A5K8L9 1-442): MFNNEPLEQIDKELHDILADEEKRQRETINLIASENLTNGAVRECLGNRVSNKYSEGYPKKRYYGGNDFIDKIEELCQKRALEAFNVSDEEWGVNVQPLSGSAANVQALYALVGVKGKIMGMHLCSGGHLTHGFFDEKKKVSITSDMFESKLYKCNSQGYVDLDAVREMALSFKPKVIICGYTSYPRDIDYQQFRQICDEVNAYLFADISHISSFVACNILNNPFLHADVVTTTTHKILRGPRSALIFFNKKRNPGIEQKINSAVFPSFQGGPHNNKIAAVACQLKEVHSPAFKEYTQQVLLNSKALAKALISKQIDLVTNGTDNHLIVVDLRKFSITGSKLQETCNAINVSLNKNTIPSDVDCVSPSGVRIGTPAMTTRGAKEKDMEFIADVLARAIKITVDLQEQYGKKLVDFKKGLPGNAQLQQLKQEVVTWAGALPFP
Put plainly: PLP fluorescence quenching. The format is binding. Conditions: 10 mM ligand, ~23 μM enzyme, 25 °C, 50 mM HEPES pH 7.

For experiment [3], the target named is T1, PfSHMT. Description: PLP fluorescence quenching. The format is binding. Conditions: 10 mM ligand, ~23 μM enzyme, 25 °C, 50 mM HEPES pH 7.
Experiment [4] has as its target T2, PvSHMT. Put plainly: SHMT-MTHFD coupled assay, initial rates. The format is biochemical. Conditions: read-out: % inhibition at 0.25 mM.
Experiment [5] deals with T2, PvSHMT. Description: time-dependent inactivation, SHMT-MTHFD coupled assay. In kind it is biochemical. Conditions: covalent; time-dependent inactivation by reaction with PLP; preincubation 5-30 min; 25 °C, 50 mM HEPES pH 7.
Experiment [6] deals with T1, PfSHMT. The experiment is described as above. The format is biochemical. To be noted: covalent; time-dependent inactivation by reaction with PLP; preincubation 5-30 min; 25 °C, 50 mM HEPES pH 7.

Consider eight compounds from article PMC3502260, “Plasmodium serine hydroxymethyltransferase as a potential anti-malarial target: inhibition studies using improved methods for enzyme production and assay” (Malaria Journal, 2012).

For `CCOc1cc(Cc2cnc(N)nc2N)ccc1OCCCc1ccccc1` [CT-55-59-42], the inhibition (commonly the share of the control response that was lost under treatment) at 100 µM on PfSHMT [1] was 40%.

As for `CCCCOc1cc(Cc2cnc(N)nc2N)ccc1OCc1cc(OC)c(OC)c(OC)c1` [CT-57-59-38], at PfSHMT [1], the inhibition at 100 µM worked out at 40%.

Consider `N[C@H](CO)C(=O)O` [D-serine], for which the PLP fluorescence quenching entry on PvSHMT [2] is “the fluorescence signal of Pf- and PvSHMT was quenched”; on PfSHMT [3] it was “Upon addition of amino acids (L-, D-serine, L-alanine, and glycine), the fluorescence signal of Pf-”.

Consider `C[C@H](N)C(=O)O` [L-alanine], for which the PLP fluorescence quenching entry at PvSHMT [2] is “the fluorescence signal of Pf- and PvSHMT was quenched”; at PfSHMT [3], “Upon addition of amino acids (L-, D-serine, L-alanine, and glycine), the fluorescence signal of Pf-”.

With `N[C@@H](CO)C(=O)O` [L-serine], on PfSHMT [3], the PLP fluorescence quenching entry is “Upon addition of amino acids (L-, D-serine, L-alanine, and glycine), the fluorescence signal of Pf-”.

For the compound `CCc1nc(N)nc(N)c1OCCCOc1ccnc2ccccc12` [TV-P-0-113], the inhibition at 250 µM on PvSHMT [4] amounted to 40%.

For the compound `NCC(=O)O` [glycine], the PLP fluorescence quenching result on PvSHMT [2] was “the fluorescence signal of Pf- and PvSHMT was quenched”; on PfSHMT [3], “for PfSHMT the binding of glycine caused the largest decrease in fluorescence intensity”.

Consider `NNC(N)=S` [thiosemicarbazide], for which the KI (inactivation) came out at 210 ± 80 µM at PvSHMT [5] and 360 ± 70 µM on PfSHMT [6].
